We go through one molecule from patent US8080377B2, “Method for confirming the exposure on chrysene” (Korea Institute of Science and Technology, priority 2008, dated 2011).

The nature of data set [1]: Cytotoxicity assay (MTT assay), chrysene treated 48 hours. Format: cell-based, human. The conditions noted are these: human, HepG2 cells; HepG2, MTT, 48 hours; read-out: IC20 (concentration exhibiting 80% cell survival rate). The protocol: (§1) The human hepatoma cell line HepG2 (Korean Cell Line Bank) was cultured in DMEM (Gibco-BRL, USA) supplemented with 10% FBS in 100 mm dish until it grew 80%. The present inventors selected chrysene (Sigma-Aldrich, USA) among polycyclic aromatic hydrocarbons known to have carcinogenicity, based on the previous studies and reports. Chrysene was dissolved in DMSO. The concentration of vehicle was up to 0.1% in every experiment.
(§2) MTT assay with the HepG2 cell line was performed according to the method of Mossman et al. (J. Immunol. Methods, 65: 55-63, 1983). The cells were inoculated in a 24-well plate containing DMEM at the concentration of 4×10^5 cells/well, to which chrysene dissolved in DMSO was treated. 48 hours later, MTT (3-[4,5-dimethylthiazol-2-yl]-2,5-diphenyltetra zolium bromide) was added at the concentration of 5 mg/ml, followed by culture at 37° C. for 3 hours. Then, medium was eliminated and generated formazan crystal was dissolved in 500 μl of DMSO. The solution was aliquoted in a 96 well-plate and OD540 was measured. Cytotoxicity in the HepG2 cell line caused by chrysene was investigated. As a result, IC20 was 34.97 µM (see FIG. 1) and thus the concentration of chrysene for the further experiment was determined as the above.

The test system of a further data set is HepG2 cell line. The data set is described as above. The class given is cell-based, human. The conditions noted are these: HepG2. The protocol:
as §1, §2

The test system of a further data set is HepG2 cells. Description: Quantitative real time RT-PCR of genes up- or down-regulated by chrysene. Format: cell-based, human. The protocol: […]
To investigate and quantify the expressions of those genes, primers which can specifically proliferate of those genes' mRNA (see Table 4) were prepared, and quantitative real time RT-PCR was performed using My IQ Real-time PCR (Bio-rad, USA). […] To quantify PCR product, SYBR Green I (Bio-rad, USA) staining was performed. SYBR Green I staining is based on binding to double stranded DNA, so that as double stranded DNA increases during PCR, fluorescence intensity increases. […]
On the technique in general: Real-time PCR tracks product formation cycle by cycle.

The conditions of data set [2]: animal tests; cited from earlier work.

Molecules are shown by their SMILES.

In the case of `c1ccc2c(c1)ccc1c3ccccc3ccc21` [chrysene], the IC20 at 48 h in data set [1] was 35 µM. In the data set on HepG2 cell line, the “cytotoxicity in the human hepatoma cell line” value is given as “demonstrated cytotoxicity”. In the data set with HepG2 cells, the “expression profiles of 25 up-regulated genes and 10 down-regulated genes” value is reported as “consistent with the result of oligo-microarray”. Moreover, in data set [2], the “absorption rate through skin” value is recorded as “very slow” and the “absorption via oral pathway” value was “absorbed”.
